Reference: PubChem BioAssay (NCI)
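Cultured in 96-well plates, cells were exposed to test compound for 48 hours across five concentrations. TGI: concentration producing complete growth inhibition.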

Columns and labels:
Assay in all cases: growth of human tumour cells (NCI), 48 h
RPMI-8226 leukemia = test system: RPMI-8226 leukemia
CCRF-CEM leukemia = test system: CCRF-CEM leukemia
HL-60(TB) leukemia = test system: HL-60(TB) leukemia
HOP-62 NSCLC = test system: HOP-62 NSCLC
HT29 colon = test system: HT29 colon
KM12 colon = test system: KM12 colon
XF 498 CNS = test system: XF 498 CNS
SK-MEL-28 melanoma = test system: SK-MEL-28 melanoma
HCC-2998 colon = test system: HCC-2998 colon
SK-MEL-5 melanoma = test system: SK-MEL-5 melanoma
UO-31 renal = test system: UO-31 renal
SF-539 CNS = test system: SF-539 CNS
KM20L2 colon = test system: KM20L2 colon
M19-MEL melanoma = test system: M19-MEL melanoma
DLD-1 colon = test system: DLD-1 colon
786-0 renal = test system: 786-0 renal
OVCAR-8 ovarian = test system: OVCAR-8 ovarian
CAKI-1 renal = test system: CAKI-1 renal
K-562 leukemia = test system: K-562 leukemia
UACC-257 melanoma = test system: UACC-257 melanoma
HOP-92 NSCLC = test system: HOP-92 NSCLC
HCT-116 colon = test system: HCT-116 colon
UACC-62 melanoma = test system: UACC-62 melanoma
IGROV1 ovarian = test system: IGROV1 ovarian
RXF 393 renal = test system: RXF 393 renal
ACHN renal = test system: ACHN renal
SR leukemia = test system: SR leukemia
HOP-18 NSCLC = test system: HOP-18 NSCLC
EKVX NSCLC = test system: EKVX NSCLC
SNB-78 CNS = test system: SNB-78 CNS
OVCAR-3 ovarian = test system: OVCAR-3 ovarian
A498 renal = test system: A498 renal
SNB-19 CNS = test system: SNB-19 CNS
HCT-15 colon = test system: HCT-15 colon
NCI-H460 lung = test system: NCI-H460 lung
SNB-75 CNS = test system: SNB-75 CNS
DMS 114 small cell lung = test system: DMS 114 small cell lung
LXFL 529 NSCLC = test system: LXFL 529 NSCLC
TK-10 renal = test system: TK-10 renal
OVCAR-4 ovarian = test system: OVCAR-4 ovarian
NCI-H226 lung = test system: NCI-H226 lung
MOLT-4 leukemia = test system: MOLT-4 leukemia
SF-268 CNS = test system: SF-268 CNS
SK-MEL-2 melanoma = test system: SK-MEL-2 melanoma
SN12C renal = test system: SN12C renal
A549 NSCLC = test system: A549 NSCLC
LOX IMVI melanoma = test system: LOX IMVI melanoma
OVCAR-5 ovarian = test system: OVCAR-5 ovarian
MALME-3M melanoma = test system: MALME-3M melanoma
NCI-H23 lung = test system: NCI-H23 lung
M14 melanoma = test system: M14 melanoma
DMS 273 small cell lung = test system: DMS 273 small cell lung
SF-295 CNS = test system: SF-295 CNS
SW-620 colon = test system: SW-620 colon
RXF-631 renal = test system: RXF-631 renal
U251 CNS = test system: U251 CNS
NCI-H522 lung = test system: NCI-H522 lung
COLO 205 colon = test system: COLO 205 colon

C/C(CCn1[nH]c(=O)ccc1=O)=N\OCCCc1ccccc1
TGI (RPMI-8226 leukemia): > 100 µM | TGI (CCRF-CEM leukemia): > 100 µM | TGI (HL-60(TB) leukemia): > 100 µM | TGI (HOP-62 NSCLC): > 100 µM | TGI (HT29 colon): > 100 µM | TGI (KM12 colon): > 100 µM | TGI (XF 498 CNS): > 100 µM | TGI (SK-MEL-28 melanoma): > 100 µM | TGI (HCC-2998 colon): > 100 µM | TGI (SK-MEL-5 melanoma): > 100 µM | TGI (UO-31 renal): > 100 µM | TGI (SF-539 CNS): > 100 µM | TGI (KM20L2 colon): > 100 µM | TGI (M19-MEL melanoma): > 100 µM | TGI (DLD-1 colon): > 100 µM | TGI (786-0 renal): > 100 µM | TGI (OVCAR-8 ovarian): > 100 µM | TGI (CAKI-1 renal): > 100 µM | TGI (K-562 leukemia): > 100 µM | TGI (UACC-257 melanoma): > 100 µM | TGI (HOP-92 NSCLC): > 100 µM | TGI (HCT-116 colon): > 100 µM | TGI (UACC-62 melanoma): > 100 µM | TGI (IGROV1 ovarian): > 100 µM | TGI (RXF 393 renal): > 100 µM | TGI (ACHN renal): > 100 µM | TGI (SR leukemia): > 100 µM | TGI (HOP-18 NSCLC): > 100 µM | TGI (EKVX NSCLC): > 100 µM | TGI (SNB-78 CNS): > 100 µM | TGI (OVCAR-3 ovarian): > 100 µM | TGI (A498 renal): > 100 µM | TGI (SNB-19 CNS): > 100 µM | TGI (HCT-15 colon): > 100 µM | TGI (NCI-H460 lung): > 100 µM | TGI (SNB-75 CNS): > 100 µM | TGI (DMS 114 small cell lung): > 100 µM | TGI (LXFL 529 NSCLC): > 100 µM | TGI (TK-10 renal): > 100 µM | TGI (OVCAR-4 ovarian): > 100 µM | TGI (NCI-H226 lung): > 100 µM | TGI (MOLT-4 leukemia): > 100 µM | TGI (SF-268 CNS): > 100 µM | TGI (SK-MEL-2 melanoma): > 100 µM | TGI (SN12C renal): > 100 µM | TGI (A549 NSCLC): > 100 µM | TGI (LOX IMVI melanoma): > 100 µM | TGI (OVCAR-5 ovarian): > 100 µM | TGI (MALME-3M melanoma): > 100 µM | TGI (NCI-H23 lung): > 100 µM | TGI (M14 melanoma): > 100 µM | TGI (DMS 273 small cell lung): > 100 µM | TGI (SF-295 CNS): > 100 µM | TGI (SW-620 colon): > 100 µM

COc1cc(C(=O)N2CCc3c([nH]c4c([N+](=O)[O-])c(OC)ccc34)C2C)cc(OC)c1OC (stereo unspecified)
TGI (RPMI-8226 leukemia): > 100 µM | TGI (RXF-631 renal): > 100 µM | TGI (CCRF-CEM leukemia): > 100 µM | TGI (HL-60(TB) leukemia): > 100 µM | TGI (HOP-62 NSCLC): > 100 µM | TGI (HT29 colon): > 100 µM | TGI (KM12 colon): > 100 µM | TGI (U251 CNS): > 100 µM | TGI (SK-MEL-28 melanoma): > 100 µM | TGI (HCC-2998 colon): > 100 µM | TGI (UO-31 renal): > 100 µM | TGI (SF-539 CNS): > 100 µM | TGI (KM20L2 colon): > 100 µM | TGI (DLD-1 colon): > 100 µM | TGI (786-0 renal): > 100 µM | TGI (NCI-H522 lung): > 100 µM | TGI (OVCAR-8 ovarian): > 100 µM | TGI (CAKI-1 renal): > 100 µM | TGI (K-562 leukemia): > 100 µM | TGI (UACC-257 melanoma): > 100 µM | TGI (HCT-116 colon): > 100 µM | TGI (UACC-62 melanoma): 39.5 µM | TGI (IGROV1 ovarian): 22.3 µM | TGI (RXF 393 renal): 91.2 µM | TGI (ACHN renal): > 100 µM | TGI (SR leukemia): > 100 µM | TGI (EKVX NSCLC): > 100 µM | TGI (SNB-78 CNS): > 100 µM | TGI (OVCAR-3 ovarian): > 100 µM | TGI (COLO 205 colon): > 100 µM | TGI (A498 renal): > 100 µM | TGI (SNB-19 CNS): > 100 µM | TGI (HCT-15 colon): > 100 µM | TGI (NCI-H460 lung): > 100 µM | TGI (SNB-75 CNS): 98.3 µM | TGI (DMS 114 small cell lung): > 100 µM | TGI (LXFL 529 NSCLC): > 100 µM | TGI (TK-10 renal): > 100 µM | TGI (OVCAR-4 ovarian): > 100 µM | TGI (NCI-H226 lung): > 100 µM | TGI (MOLT-4 leukemia): > 100 µM | TGI (SF-268 CNS): > 100 µM | TGI (SK-MEL-2 melanoma): > 100 µM | TGI (SN12C renal): > 100 µM | TGI (A549 NSCLC): > 100 µM | TGI (LOX IMVI melanoma): > 100 µM | TGI (OVCAR-5 ovarian): > 100 µM | TGI (NCI-H23 lung): > 100 µM | TGI (M14 melanoma): > 100 µM | TGI (DMS 273 small cell lung): > 100 µM | TGI (SF-295 CNS): > 100 µM | TGI (SW-620 colon): > 100 µM
